# Data taken from patent US20200062735A1, “HETEROCYCLIC AMIDES AS KINASE INHIBITORS” (GlaxoSmithKline Intellectual Property Development Limited, priority 2017, published 2020).
# Key:
# RIP1 = target: T1, RIP1 (Homo sapiens, UniProt Q13546); test: Fluorescent polarization based binding assay (FP Binding Assay); conditions: His-GST-RipK1(1-375) 10 nM, fluorescent labeled ligand 5 nM
# T1 construct: His-GST-RipK1(1-375) was purified from a Baculovirus expression system; His (N); GST (N); made in house
# T1 sequence (Q13546 1-375): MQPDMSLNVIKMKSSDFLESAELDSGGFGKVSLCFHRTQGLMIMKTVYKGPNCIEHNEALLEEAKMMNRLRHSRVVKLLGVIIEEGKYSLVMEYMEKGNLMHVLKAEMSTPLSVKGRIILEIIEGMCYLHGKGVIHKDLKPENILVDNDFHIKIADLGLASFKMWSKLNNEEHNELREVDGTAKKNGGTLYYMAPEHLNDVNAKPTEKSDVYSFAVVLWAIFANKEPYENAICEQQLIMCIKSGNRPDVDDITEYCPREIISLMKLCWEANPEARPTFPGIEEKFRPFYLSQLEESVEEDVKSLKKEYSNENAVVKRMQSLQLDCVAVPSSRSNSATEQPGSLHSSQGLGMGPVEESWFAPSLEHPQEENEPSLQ
# Method: In vitro Assay: A fluorescent polarization based binding assay was developed to quantitate interaction of novel test compounds at the ATP binding pocket of RIP1, by competition with a fluorescently labeled ATP competitive ligand. […] Test compounds were prepared in neat DMSO and 100 nL was dispensed to individual wells of a multiwell plate. […] Following the incubation, 5 μL of the fluorescent labeled ligand solution, was added to each reaction, at twice the final assay concentration, and incubated at room temperature for at least 15 minutes. Finally, samples were read on an instrument capable of measuring fluorescent polarization. Test compound inhibition was expressed as percent inhibition of internal assay controls. For concentration response experiments, normalized data were fit and pIC50 values determined using conventional techniques.
# H-22 = test: Syngeneic subcutaneous tumor model H-22; format: in vivo, mouse; conditions: H-22 model; Example 6 40 mg/kg p.o. BID up to 21 days
# Method: The efficacy of RIP1 inhibition was tested in 12 different murine (6-8 week old) syngeneic subcutaneous tumor models. RIP1 inhibition was tested as a single agent in all models, with anti-PD1 combination arms added to the five of the final models.
# T and C are the mean tumor volume of the treated and control groups, respectively, on a given day. • 2) Tumor and plasma collection at study end for further investigation.
# Cell Culture: The 12 syngeneic cell lines were maintained in vitro with different medium (indicated in Table 3) at 37° C. in an atmosphere of 5% CO2 in air. The tumor cells were routinely subcultured twice weekly. The cells in an exponential growth phase were harvested and counted for tumor inoculation.
# Each mouse was inoculated subcutaneously with tumor cells in 0.1 mL of PBS for tumor development. The treatments were started when the mean tumor size reached approximately 80-120 mm^3 (around 100 mm^3).
SMILES,FP Binding Assay (pIC50) (RIP1),Mean tumor growth inhibition (TGI) at model termination (H-22) [%]
"CN1C(=O)[C@@H](NC(=O)c2n[nH]c(Cc3ccccc3F)n2)CNc2ccccc21 [Example 3, (S)-5-(2-Fluorobenzyl)-N-(1-methyl-2-oxo-2,3,4,5-tetrahydro-1H-benzo[b][1,4]diazepin-3-yl)-1H-1,2,4-triazole-3-carboxamide]",7.4,
"N#Cc1cc(N2CCC(C(=O)N3N=CC[C@H]3c3cc(F)cc(F)c3)CC2)ncn1 [Example 6, (S)-6-(4-(5-(3,5-difluorophenyl)-4,5-dihydro-1H-pyrazole-1-carbonyl)piperidin-1-yl)pyrimidine-4-carbonitrile]",,19
"O=C(N[C@H]1CNc2cccc(F)c2NC1=O)c1nnc(Cc2ccccc2F)[nH]1 [Example 1, (S)—N-(9-Fluoro-2-oxo-2,3,4,5-tetrahydro-1H-benzo[b][1,4]diazepin-3-yl)-5-(2-fluorobenzyl)-4H-1,2,4-triazole-3-carboxamide]",8.0,
